Measured values published in patent US20150105386A1, “4-(4-PYRIDINYL)-BENZAMIDES AND THEIR USE AS ROCK ACTIVITY MODULATORS” (AbbVie Deutschland GmbH & Co KG, priority 2007, published 2015).
pKi: −log10 of the molar value.

Molecular target: T1, hROCK-2 (Homo sapiens, UniProt O75116)
T1 construct: purchased Upstate
Experiment: ROCK-2 Assay (33P-ATP FlashPlate kinase assay, biotinylated S6 peptide)
Assay type: biochemical
Conditions: hROCK-2 0.8 nM, 5 μM ATP, 1.5 μM biotinylated S6 peptide, room temperature, 60 min
Protocol: The reaction is stopped by addition of 150 μl of 0.1 M EDTA in Dulbecco's PBS. 170 μl from each well are loaded onto a FlashPlate (PerkinElmer) and incubated at room temperature for 30 min.

T1 sequence (O75116 whole entry): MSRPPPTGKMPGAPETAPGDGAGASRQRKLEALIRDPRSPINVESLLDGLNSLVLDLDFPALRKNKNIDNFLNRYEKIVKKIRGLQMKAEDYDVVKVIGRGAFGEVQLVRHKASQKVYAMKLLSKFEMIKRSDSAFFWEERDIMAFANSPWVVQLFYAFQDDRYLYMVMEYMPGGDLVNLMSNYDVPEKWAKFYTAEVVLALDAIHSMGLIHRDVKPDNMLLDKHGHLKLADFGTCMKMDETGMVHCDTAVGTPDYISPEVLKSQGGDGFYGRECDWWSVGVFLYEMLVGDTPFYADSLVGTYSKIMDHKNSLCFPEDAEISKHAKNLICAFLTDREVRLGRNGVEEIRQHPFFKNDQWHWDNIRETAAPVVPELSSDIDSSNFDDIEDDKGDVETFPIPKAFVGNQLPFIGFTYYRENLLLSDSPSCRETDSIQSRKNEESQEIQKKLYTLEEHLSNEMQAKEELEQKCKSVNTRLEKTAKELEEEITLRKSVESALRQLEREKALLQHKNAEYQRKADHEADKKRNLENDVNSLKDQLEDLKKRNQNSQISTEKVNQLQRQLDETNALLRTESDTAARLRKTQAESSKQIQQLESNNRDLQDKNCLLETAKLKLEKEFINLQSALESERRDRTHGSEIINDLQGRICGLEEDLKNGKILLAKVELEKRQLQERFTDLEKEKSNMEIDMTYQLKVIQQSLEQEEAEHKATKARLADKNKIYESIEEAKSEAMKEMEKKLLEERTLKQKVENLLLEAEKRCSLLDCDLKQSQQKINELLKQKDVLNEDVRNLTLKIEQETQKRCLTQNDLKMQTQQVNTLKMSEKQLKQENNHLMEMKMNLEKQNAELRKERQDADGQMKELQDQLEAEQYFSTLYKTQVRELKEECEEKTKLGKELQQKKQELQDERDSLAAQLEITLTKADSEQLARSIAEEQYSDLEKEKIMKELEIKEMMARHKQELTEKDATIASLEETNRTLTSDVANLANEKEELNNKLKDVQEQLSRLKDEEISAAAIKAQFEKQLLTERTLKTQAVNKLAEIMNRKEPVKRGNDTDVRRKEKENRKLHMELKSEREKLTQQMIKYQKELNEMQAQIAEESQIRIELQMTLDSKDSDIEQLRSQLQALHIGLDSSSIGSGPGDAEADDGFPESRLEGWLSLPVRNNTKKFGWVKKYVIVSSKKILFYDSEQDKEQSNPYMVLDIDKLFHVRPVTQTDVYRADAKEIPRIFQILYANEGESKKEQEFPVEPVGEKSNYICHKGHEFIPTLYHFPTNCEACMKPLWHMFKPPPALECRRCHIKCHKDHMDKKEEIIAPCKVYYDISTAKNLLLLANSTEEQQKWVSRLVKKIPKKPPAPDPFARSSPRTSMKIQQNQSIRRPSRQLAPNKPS

| pKi | Compound |
| --- | --- |
| > 7.30 | C[C@@H](NC(=O)c1ccc(-c2ccncc2)cc1)c1ccc2ccccc2c1 [Example 91, N-[(1R)-1-(2-naphthyl)ethyl]-4-pyridin-4-ylbenzamide] |
| > 7.30 | COc1cc(-c2ccncc2)ccc1C(=O)N[C@H](CCO)c1ccccc1 [Example 94, N—((R)-3-hydroxy-1-phenyl-propyl)-2-methoxy-4-pyridin-4-yl-benzamide] |
| > 7.30 | COc1cccc([C@@H](C)NC(=O)c2ccc(-c3ccncc3)cc2C)c1 [Example 96, N—[(R)-1-(3-methoxy-phenyl)-ethyl]-2-methyl-4-pyridin-4-yl-benzamide] |
| > 7.30 | COc1cccc([C@@H](C)NC(=O)c2ccc(-c3ccncc3)c(OC)c2)c1 [Example 97, 3-methoxy-N—[(R)-1-(3-methoxy-phenyl)-ethyl]-4-pyridin-4-yl-benzamide] |
| > 7.30 | COc1cccc([C@@H](C)NC(=O)c2ccc(-c3ccncc3C)cc2)c1 [Example 101, N—[(R)-1-(3-Methoxy-phenyl)-ethyl]-4-(3-methyl-pyridin-4-yl)-benzamide] |
| > 7.30 | COc1cccc([C@H](C)NC(=O)c2ccc(-c3ccncc3)c(C)c2)c1 [Example 102, N—[(S)-1-(3-methoxy-phenyl)-ethyl]-3-methyl-4-pyridin-4-yl-benzamide] |
| > 7.30 | COc1cccc([C@@H](C)NC(=O)c2ccc(-c3ccncc3)cc2OC)c1 [Example 103, 2-methoxy-N—[(R)-1-(3-methoxy-phenyl)-ethyl]-4-pyridin-4-yl-benzamide] |
| > 7.30 | COc1cc(-c2ccncc2)ccc1C(=O)N[C@H](C)c1cccc2ccccc12 [Example 106, 2-methoxy-N—((R)-1-naphthalen-1-yl-ethyl)-4-pyridin-4-yl-benzamide] |
| 6.30 to 7.30 | COc1cc(-c2ccncc2)ccc1C(=O)N[C@H](C)c1ccc2ccccc2c1 [Example 107, 2-methoxy-N—((R)-1-naphthalen-2-yl-ethyl)-4-pyridin-4-yl-benzamide] |
| > 7.30 | COc1cc(-c2ccncc2)ccc1C(=O)N[C@H](C)c1ccccc1 [Example 112, 2-methoxy-N—((R)-1-phenyl-ethyl)-4-pyridin-4-yl-benzamide] |
| 6.30 to 7.30 | COc1cc(-c2ccncc2)ccc1C(=O)N[C@@H](C)c1ccccc1 [Example 114, 2-methoxy-N—((S)-1-phenyl-ethyl)-4-pyridin-4-yl-benzamide] |
| 6.30 to 7.30 | COc1cccc([C@H](C)NC(=O)c2ccc(-c3ccncc3)cc2OC)c1 [Example 130, 2-methoxy-N—[(S)-1-(3-methoxy-phenyl)-ethyl]-4-pyridin-4-yl-benzamide] |
| > 7.30 | COc1cc(-c2ccncc2)ccc1C(=O)N[C@H](C)c1cccc(C(F)(F)F)c1 [Example 132, 2-methoxy-4-pyridin-4-yl-N—[(R)-1-(3-trifluoromethyl-phenyl)-ethyl]-benzamide] |
| > 7.30 | COc1cc(-c2ccncc2)ccc1C(=O)NC(CO)c1cc(Cl)cc(Cl)c1 (stereo not drawn) [Example 135, N-[1-(3,5-dichloro-phenyl)-2-hydroxy-ethyl]-2-methoxy-4-pyridin-4-ylbenzamide] |
| > 7.30 | COc1cc(-c2ccncc2)ccc1C(=O)NC(CO)c1cccc2ccccc12 (stereo not drawn) [Example 140, N-(2-hydroxy-1-naphthalen-1-yl-ethyl)-2-methoxy-4-pyridin-4-ylbenzamide] |
| > 7.30 | COc1cccc(C(CN2CCCC2)NC(=O)c2ccc(-c3ccncc3)cc2)c1 (stereo not drawn) [Example 149, N-[1-(3-methoxy-phenyl)-2-pyrrolidin-1-yl-ethyl]-4-pyridin-4-yl-benzamide] |
| > 7.30 | CC(NC(=O)c1ccc(-c2ccncc2)cc1)c1cccc(OCc2ccccc2)c1 (stereo not drawn) [Example 151, N-[1-(3-benzyloxy-phenyl)-ethyl]-4-pyridin-4-yl-benzamide] |
| > 7.30 | CC(C)Oc1cccc(C(C)NC(=O)c2ccc(-c3ccncc3)cc2)c1 (stereo not drawn) [Example 152, N-[1-(3-isopropoxy-phenyl)-ethyl]-4-pyridin-4-yl-benzamide] |
| > 7.30 | COc1cccc([C@@H](C)NC(=O)c2ccc(-c3ccncc3)c(Cl)c2)c1 [Example 156, 3-Chloro-N—[(R)-1-(3-methoxy-phenyl)-ethyl]-4-pyridin-4-yl-benzamide] |
| > 7.30 | Cc1cnccc1-c1ccc(C(=O)N[C@H](C)c2ccccc2)cc1 [Example 157, 4-(3-methyl-pyridin-4-yl)-N—((R)-1-phenyl-ethyl)-benzamide] |
| > 7.30 | Cc1cnccc1-c1ccc(C(=O)N[C@H](C)c2cccc3ccccc23)cc1 [Example 159, 4-(3-methyl-pyridin-4-yl)-N—((R)-1-naphthalen-1-yl-ethyl)-benzamide] |
| 6.30 to 7.30 | Cc1cnccc1-c1ccc(C(=O)NC2CCCc3ccccc32)cc1 (stereo not drawn) [Example 160, 4-(3-methyl-pyridin-4-yl)-N-(1,2,3,4-tetrahydro-naphthalen-1-yl)-benzamide] |

| pKi | Compound |
| --- | --- |
| 6.30 to 7.30 | Cc1cnccc1-c1ccc(C(=O)N[C@H](C)c2ccc(Br)cc2)cc1 [Example 166, N—[(R)-1-(4-bromo-phenyl)-ethyl]-4-(3-methyl-pyridin-4-yl)-benzamide] |
| 6.30 to 7.30 | Cc1cnccc1-c1ccc(C(=O)N[C@H](C)c2ccc(Cl)cc2)cc1 [Example 168, N—[(R)-1-(4-chloro-phenyl)-ethyl]-4-(3-methyl-pyridin-4-yl)-benzamide] |
| 6.30 to 7.30 | Cc1cnccc1-c1ccc(C(=O)N[C@H](C)c2ccc3ccccc3c2)cc1 [Example 170, 4-(3-methyl-pyridin-4-yl)-N—((R)-1-naphthalen-2-yl-ethyl)-benzamide] |
| 6.30 to 7.30 | COc1ccccc1C(CO)NC(=O)c1ccc(-c2ccncc2C)cc1 (stereo not drawn) [Example 171, N-[2-hydroxy-1-(2-methoxy-phenyl)-ethyl]-4-(3-methyl-pyridin-4-yl)-benzamide] |
| > 7.30 | Cc1cnccc1-c1ccc(C(=O)NC(CO)c2cccc3ccccc23)cc1 (stereo not drawn) [Example 172, N-(2-hydroxy-1-naphthalen-1-yl-ethyl)-4-(3-methyl-pyridin-4-yl)-benzamide] |
| 6.30 to 7.30 | COc1ccccc1[C@@H](C)NC(=O)c1ccc(-c2ccncc2C)cc1 [Example 175, N—[(R)-1-(2-methoxy-phenyl)-ethyl]-4-(3-methyl-pyridin-4-yl)-benzamide] |
| 6.30 to 7.30 | COc1cccc([C@H](C)NC(=O)c2ccc(-c3ccncc3C)cc2)c1 [Example 179, N—[(S)-1-(3-methoxy-phenyl)-ethyl]-4-(3-methyl-pyridin-4-yl)-benzamide] |
| > 7.30 | Cc1cnccc1-c1ccc(C(=O)N[C@H](C)c2ccc(F)cc2)cc1 [Example 180, N—[(R)-1-(4-fluoro-phenyl)-ethyl]-4-(3-methyl-pyridin-4-yl)-benzamide] |
| > 7.30 | Cc1cnccc1-c1ccc(C(=O)N[C@H](C)c2cccc(C(F)(F)F)c2)cc1 [Example 181, 4-(3-methyl-pyridin-4-yl)-N—[(R)-1-(3-trifluoromethyl-phenyl)-ethyl]-benzamide] |
| 6.30 to 7.30 | Cc1cnccc1-c1ccc(C(=O)NC(CO)c2cc(Cl)cc(Cl)c2)cc1 (stereo not drawn) [Example 185, N-[1-(3,5-dichloro-phenyl)-2-hydroxy-ethyl]-4-(3-methyl-pyridin-4-yl)-benzamide] |
| > 7.30 | O=C(NC(CO)c1cccc2ccccc12)c1ccc(-c2ccncc2)cc1 (stereo not drawn) [Example 187, N-(2-hydroxy-1-naphthalen-1-yl-ethyl)-4-pyridin-4-yl-benzamide] |
| > 7.30 | COC[C@@H](NC(=O)c1ccc(-c2ccncc2)cc1)c1ccccc1 [Example 188, N—((S)-2-methoxy-1-phenyl-ethyl)-4-pyridin-4-yl-benzamide] |
| 6.30 to 7.30 | COc1ccc(C(C)NC(=O)c2ccc(-c3ccncc3)cc2)c2ccccc12 (stereo not drawn) [Example 189, N-[1-(4-methoxy-naphthalen-1-yl)-ethyl]-4-pyridin-4-yl-benzamide] |
| 6.30 to 7.30 | C[C@@H](NC(=O)c1ccc(-c2ccncc2)cc1Cl)c1ccccc1 [Example 191, 2-chloro-N—((R)-1-phenyl-ethyl)-4-pyridin-4-yl-benzamide] |
| > 7.30 | C[C@@H](NC(=O)c1ccc(-c2ccncc2)cc1Cl)c1cccc2ccccc12 [Example 192, 2-chloro-N—((R)-1-naphthalen-1-yl-ethyl)-4-pyridin-4-yl-benzamide] |
| > 7.30 | C[C@@H](NC(=O)c1ccc(-c2ccncc2)c(F)c1)c1cccc2ccccc12 [Example 217, 3-fluoro-N—((R)-1-naphthalen-1-yl-ethyl)-4-pyridin-4-yl-benzamide] |
| 6.30 to 7.30 | C[C@@H](NC(=O)c1ccc(-c2ccncc2)c(F)c1)c1ccc2ccccc2c1 [Example 229, 3-fluoro-N—((R)-1-naphthalen-2-yl-ethyl)-4-pyridin-4-yl-benzamide] |
| 6.30 to 7.30 | COc1cccc([C@H](C)NC(=O)c2ccc(-c3ccncc3)c(F)c2)c1 [Example 236, 3-fluoro-N—[(S)-1-(3-methoxy-phenyl)-ethyl]-4-pyridin-4-yl-benzamide] |
| > 7.30 | COc1cccc([C@@H](C)NC(=O)c2ccc(-c3ccncc3)cc2Cl)c1 [Example 243, 2-chloro-N—[(R)-1-(3-methoxy-phenyl)-ethyl]-4-pyridin-4-yl-benzamide] |
| > 7.30 | COc1cccc([C@@H](C)NC(=O)c2ccc(-c3ccncc3)c(F)c2)c1 [Example 244, 3-fluoro-N—[(R)-1-(3-methoxy-phenyl)-ethyl]-4-pyridin-4-yl-benzamide] |
| > 7.30 | COc1cccc([C@@H](C)NC(=O)c2ccc(-c3ccncc3)cc2F)c1 [Example 245, 2-fluoro-N—[(R)-1-(3-methoxy-phenyl)-ethyl]-4-pyridin-4-yl-benzamide] |
| > 7.30 | COc1cccc([C@@H](C)NC(=O)c2ccc(-c3ccncc3F)cc2C)c1 [Example 246, 4-(3-fluoro-pyridin-4-yl)-N—[(R)-1-(3-methoxy-phenyl)-ethyl]-2-methyl-benzamide] |

| Compound | pKi |
| --- | --- |
| CC(C)COc1cccc(C(C)NC(=O)c2ccc(-c3ccncc3)cc2)c1 (stereo not drawn) [Example 153, N-[1-(3-isobutoxy-phenyl)-ethyl]-4-pyridin-4-yl-benzamide] | > 7.30 |
